Literature values as cited in patent US9192591B2, “Method and composition for treating alzheimer-type dementia” (priority 2008, dated 2015).

Assays:
[1] = tested on: patients with dementias of the Alzheimer type; conditions: donepezil 5-10 mg per day; rivastigmine 1-4 and 6-12 mg per day; galantamine 8-32 mg per day
[2] = tested on: patients with Alzheimer's disease treated with tacrine; conditions: propantheline 7.5 mg to 15 mg four times a day
[3] = tested on: patients with Alzheimer's disease; conditions: skin patches replacing immediate release tablets

SMILES: COc1cc2c(cc1OC)C(=O)C(CC1CCN(Cc3ccccc3)CC1)C2 (racemic) [donepezil, (±)-2,3-dihydro-5,6-dimethoxy-2-[[1-(phenylmethyl)-4-piperidinyl]methyl]-1H-inden-1-one]
- benefits on cognitive and global measures relevant to dementia [1]: small, but statistically significant, benefits

SMILES: CC(C)[N+](C)(CCOC(=O)C1c2ccccc2Oc2ccccc21)C(C)C [propantheline]
- effect on peripheral cholinergic gastrointestinal side effects of tacrine (cramping, nausea, vomiting, diarrhea) [2]: ameliorated

SMILES: CCN(C)C(=O)Oc1cccc([C@H](C)N(C)C)c1 [rivastigmine, (S)—N-Ethyl-N-methyl-3-[1-(dimethylamino)ethyl]-phenyl carbamate]
- benefits on cognitive and global measures relevant to dementia [1]: small, but statistically significant, benefits
- patients who discontinued because of vomiting (patients; compared to less than 1% on placebo): Five
- patients in whom weight declined (patients; during rivastigmine therapy): 25%
- patients reporting loss of appetite (patients; in vivo): 17%
- patients who become nauseated (patients; oral 6-12 mg/day): About half
- patients who vomit at least once (patients; oral 6-12 mg/day): about one-third
- patients with mild or moderate vomiting (patients; rivastigmine-treated patients): 14%
- patients with severe vomiting (patients; rivastigmine-treated patients): 2%
- amount of cognitive improvement and side effects on doubling the dose [3]: significantly increased the amount of cognitive improvement in patients with Alzheimer's disease without increasing side effects
